Results as given in publication PMC4219730 (PLoS ONE, 2014).
Like-named read-outs stand apart in the source and are kept apart here.

How the values were obtained:
SSTR2 = conditions: cited from earlier work
[1] = system: xenografts of a human meningioma cell line (CH-157MN); experiment: Static PET/CT study: SUVmax and SUV ratios in mice bearing meningioma xenografts; assay type: in vivo, NUDE NU/NU mice; conditions: for T/L SUV ratio (tumor-to-liver): SUVmax of tumor normalized to SUVmax of liver, p<0.001; for Visualization of flank tumors in PET/CT images: comparative PET/CT images of the same animal
Protocol: (§1) Animals were scanned on a small-animal PET scanner (ARGUS PET-CT, SEDECAL, Madrid, Spain) under anesthesia (isoflurane, 3% induction and 1.5% maintenance in 100% O2). Imaging was performed 7–28 days after tumor cell inoculation. […] Half of the animals imaged with ^68Ga-DOTATOC were also imaged with the other two radiotracers in alternate days with respect to ^68Ga-DOTATOC (Figure 1).
(§2) Frames corresponding to the last 60 minutes of the study were summed to form a static image. Images were reconstructed using the 2D–OSEM (Ordered Subset Expectation Maximization) algorithm (16 subsets and two iterations), which yields a spatial resolution for this scanner of 1.45 mm Full Width at Half Maximum (FWHM), with a voxel size of 0.3875×0.3875×0.7750 mm^3. The energy window was 400–700 keV. Decay and deadtime corrections were applied.
Three 3D ROIs were drawn manually on the CT image, one for each tissue of interest (tumor, liver, and muscle), plus a background ROI outside the body area. Since the CT images are intrinsically registered to the PET images, the ROIs drawn on the CT image were directly overlaid on the PET image after correction for the different image sizes. The assessment of PET data included calculation of the maximum standard uptake value (SUVmax) on the static tomographic study and computation of the volume of distribution (Vt) from the dynamic study.
Tumor, muscle, and liver SUVmax values at 30–90 minutes post-injection were recorded. […] The SUVmax of the tumor lesions was normalized to the SUVmax of the liver (T/L) and muscle (T/M). The T/L and T/M SUV ratios were considered markers of the ability of the radiopharmaceutical to localize in the tumor.

SSTR3 = conditions: cited from earlier work
[2] = parameters: method as in PMID 12937948; conditions: comparison between tracers; cited from earlier work
SSTR5 = conditions: cited from earlier work
[3] = system: xenografts of a human meningioma cell line (CH-157MN); experiment: Dynamic PET study: volume of distribution (Vt) by Logan graphical analysis; assay type: in vivo, NUDE NU/NU mice; conditions: two-tissue reversible compartmental model, comparison between radiotracers
Protocol: as §1, §2
Three 3D ROIs were drawn manually on the CT image, one for each tissue of interest (tumor, liver, and muscle), plus a background ROI outside the body area. Since the CT images are intrinsically registered to the PET images, the ROIs drawn on the CT image were directly overlaid on the PET image after correction for the different image sizes. […]
Vt was calculated from dynamic PET data using standard Logan graphical analysis for a two-tissue reversible compartmental model. […]

SSTR in CH-157MN cells = experiment: Homologous competitive binding with [^125I]-somatostatin-28 in CH-157MN meningioma cells; parameters: species or system human; conditions: 0.5 nM [^125I]-somatostatin-28, 37°C, 1 hour, mean ± SEM, three independent experiments in triplicate, read-out: IC50 (concentration of cold ligand that reduces specific binding of radioligand by 50%)
Protocol: Affinity was determined from three independent experiments performed in triplicate and was measured by means of a homologous competitive binding experiment according to Motulsky and Neubig. The IC50 (concentration of cold ligand [somatostatin-28] that reduces specific binding of radioligand by 50%) was determined by competitive binding assays with [^125I]-somatostatin-28 (Amersham Pharmacia Biotech, UK) in CH-157MN meningioma cells. Briefly, cells were incubated into a 24-well cell culture plate (2–2.5×10^5 cells/well) at 37°C for 1 hour in a CO2 incubator with 0.5 nM [^125I]-somatostatin-28 (Amersham Pharmacia Biotech, UK) in the presence of increasing concentrations of somatostatin-28 (0.1 nM-10 µM) in 0.25 ml of binding media (DMEM, 2 mM L-glutamine, 50 units/ml penicillin and 50 µg/ml streptomycin). The reaction medium was aspirated after incubation. Cells were rinsed with 0.5 ml of ice-cold PBS twice and lysed in 0.5 ml of 1 N NaOH for five minutes. The activity in cells was measured in a Packard Cobra II gamma counter. The competitive binding curves were obtained by plotting the [^125I]-somatostatin-28 bound to cells against concentrations of cold ligand. IC50 and maximum numbers of binding sites (Bmax) were calculated using Origin 7.5 software (OriginLab Corporation, Northampton, Massachusetts, USA).

[4] = comparison between radiotracers

For “^68Ga-DOTA -Tyr^3-octreotide [^68Ga-DOTATOC]”, the “Affinity for SSTR2” value (SSTR2) is given as “high affinity”, the “T/L SUV ratio (tumor-to-liver)” value [1, 4] is given as “No differences were found between ^68Ga-DOTATATE and ^68Ga-DOTATOC” and the “Visualization of flank tumors in PET/CT images” value [1] is given as “better visualized”.
In the case of “^68Ga-DOTA-Nal^3-octreotide [^68Ga-DOTANOC]”, the “Affinity for SSTR3” value (SSTR3) is given as “has affinity for SSTR3 and SSTR5”, the Lipophilicity [2] is given as “more lipophilic than ^68Ga-DOTATATE and ^68Ga-DOTATOC” and the “Affinity for SSTR2” value (SSTR2; comparison with ^68Ga-DOTATOC) is given as “higher affinity for SSTR2 than ^68Ga-DOTATOC”. The “Affinity for SSTR5” value (SSTR5) was “has affinity for SSTR3 and SSTR5”.
For “^68Ga-DOTA-Tyr^3-octreotate [^68Ga-DOTATATE]”, the Vt tumor [3] is given as “higher with ^68Ga-DOTATATE than with ^68Ga-DOTANOC and relatively similar to that of ^68Ga-DOTATOC”, the “Affinity for SSTR2” value (SSTR2) is given as “high affinity” and the “T/L SUV ratio (tumor-to-liver)” value [1, 4] is given as “No differences were found between ^68Ga-DOTATATE and ^68Ga-DOTATOC”. The “T/M SUV ratio (tumor-to-muscle)” value ([1]; SUVmax of tumor normalized to SUVmax of muscle, comparison between radiotracers) was “higher than that of ^68Ga-DOTATOC (p<0.01) and ^68Ga-DOTANOC (p<0.05)” and the “Visualization of flank tumors in PET/CT images” value [1] was “better visualized”.
Substance somatostatin-28 has an IC50 (SSTR in CH-157MN cells) of 63.7 ± 32.3 nM.
